Measured values published in patent US9226919B2, “Methods for dosing an orally active 1,2,4-oxadiazole” (PTC Therapeutics, Inc., priority 2006, dated 2016).

Experiments:
[1] = test system: CFTR; test: Transepithelial potential difference (TEPD) chloride conductance, Phase 2 cystic fibrosis study; type: in vivo, human; details: 15 CF patients
Protocol: The measurement of transepithelial potential difference (TEPD), also known as nasal potential difference, provides a sensitive evaluation of sodium and chloride transport directly in secretory epithelial cells via assessment of transepithelial bioelectric properties (Knowles et al., 1981, N. Engl. J. Med. 305(25):1489-95; Knowles et al., 1995, Hum. Gene Ther. 6:445). TEPD is performed in each nostril using standardized techniques (Standaert et al., 2004, Ped. Pulm. 37:385-92). In the procedure, a small plastic catheter is used to assess electrical differences across the outer cell membrane of nasal mucosa cells in the nostril. TEPD values are expressed in millivolts, or mV. A chloride conductance equal to or more electrically negative than −5.0 mV is generally considered to be in the normal range. […] TEPD assessments can also be made on rectal epithelial cells and lower respiratory epithelial cells. Because of the role of the CFTR protein in transporting chloride ions across cell membranes, and because of the absence of this protein, cystic fibrosis patients have an abnormal TEPD chloride conductance. As an endpoint, TEPD has the advantage that it can detect chloride transport changes that are a quantitative integration of the presence, functional activity, and apical location of the CFTR in airway cells. Furthermore, it is a direct measure of CFTR activity that is not likely to be affected by supportive or palliative treatments for CF (with the possible exception of systemically administered aminoglycoside antibiotics). Of importance is evidence that TEPD values can correlate with the degree of pulmonary dysfunction and radiographic abnormality (Ho et al., 1997, Eur. Respir. J. 10(9):2018-22; Fajac et al., 1998, Eur. Respir. J 12(6):1295-300; Sermet-Gaudelus et al., 2005, Am. J. Respit. Crit. Care Med. 171(9):1026-1031). […] Under baseline conditions, TEPD-assessed chloride channel activity is very unlikely to normalize spontaneously in patients with CF; any observed improvements in TEPD-assessed chloride channel activity are expected to specifically denote pharmacological activity of CFTR-correcting therapies. […]
Clinical endpoints were evaluated using the procedures set forth above. […] Pulmonary tests, including FEV1, FVC and MEF25-75, were measured prior to treatment, on day −1 of Cycle 2, on day 13 or 14 of Cycle 1 and day 13 or 14 of Cycle 2 in the study being conducted in Israel and the same parameters were measured prior to treatment and on day 13 or 14 of Cycle 2 in the study being conducted in the United States. […]

[2] = test system: cough; test: Quantitative cough assessment (LifeShirt), mean cough frequency over 24 hours; type: in vivo, human; details: FIG. 2; initial improvement, temporary increase, then overall improvement
Protocol: FIG. 2 provides the effect on mean cough frequency over 24 hours by the administration of 3-[5-(2-fluoro-phenyl)-[1,2,4]oxadiazol-3-yl]-benzoic acid to a subject.
The VivoMetrics, Inc. LifeShirt® incorporates motion-sensing transducers, electrodes, a throat microphone, calibration bag, and a 3-axis accelerometer into a lightweight, washable vest that is available for patients≧5 years of age (see LifeShirt® Monitoring System QuickStart Guide, incorporated by reference herein in its entirety). Using integrated input from the motion sensors and microphone, the frequency and intensity of cough can be measured. […]
The device was used to obtain the data set forth in FIG. 2 and will be used to offer substantial supplementary data regarding the clinical benefits of 3-[5-(2-fluoro-phenyl)-[1,2,4]oxadiazol-3-yl]-benzoic acid during Phase 3 testing in CF. […] Without being limited by theory, based on the hypothesis that 3-[5-(2-fluoro-phenyl)-[1,2,4]oxadiazol-3-yl]-benzoic acid-mediated induction of CFTR function would reduce airway obstruction and inflammation, a decrease in cough frequency could serve as a symptomatic integration of these pharmacological effects and might offer a more accurate and quantitative assessment than verbal patient reporting.

[3] = higher dose level (10, 10, 20 mg/kg TID, 14 days)
[4] = lower dose level (4, 4, 8 mg/kg TID, 14 days)

## O=C(O)c1cccc(-c2noc(-c3ccccc3F)n2)c1 [3-[5-(2-fluoro-phenyl)-[1,2,4]oxadiazol-3-yl]-benzoic acid]
[1]; [3]
  Mean change in TEPD chloride conductance, best of nostrils: −6.4 mV
  Mean change in TEPD chloride conductance, mean of both nostrils: −4.4 mV
[1]; [4]
  Mean change in TEPD chloride conductance, best of nostrils: −9.0 mV
  Mean change in TEPD chloride conductance, mean of both nostrils: −6.7 mV
[2]
  Mean cough frequency over 24 hours: overall improvement in mean cough frequency
